Data on ten compounds can be found in patent publication US20130345218A1 (Vertex Pharmaceuticals Incorporated, priority 2010, published 2013).

SMILES strings stand for the structures. Read-outs that look alike come from different tables or passages of the source. Where only a bound is given, the exact number is not on record here.

In test [1] the test system is influenza A virus (A/PR/8/34). Briefly: microbe, parasite or virus in culture. The format is cell-based. The settings on record: Influenza A virus, PR/8, MDCK, MDCK cells.
Test [2] has as its system influenza A virus (A/PR/8/34) minus-strand viral RNA. Nature of the test: microbe, parasite or virus in culture. The format is cell-based. As to conditions: Influenza A virus, PR/8.
The next test relates to influenza infection. Nature of the test: Influenza therapeutic mouse model (survival, body weight, whole body plethysmography). The format is in vivo. The settings on record: Balb/c mice, dosing @ 48 hours post infection with 30 mg/kg BID X 10 days.
[3] abbreviates: 72 h, mean IC50 (mean all), A/PR/8/34, 72 hours, read-out: Flu, MDCK IC50.
Where [4] appears, read: mean EC50 (mean all), viral RNA by bDNA, read-out: bDNA EC50.

With `N#Cc1cc(F)c(N[C@H]2CCC[C@@H](NC(=O)N3CCOCC3)C2)nc1-c1c[nH]c2ncc(F)cc12` [Compound I-12, N-((1R,3S)-3-((5-cyano-3-fluoro-6-(5-fluoro-1H-pyrrolo[2,3-b]pyridin-3-yl)pyridin-2-yl)amino)cyclohexyl)morpholine-4-carboxamide], the IC50 in test [1] (setting [3]) is under 3.3 µM. Also, the concentration for a half-maximal effect (EC50) in test [2] (setting [4]) is under 3.3 µM.
Take `O=C(O)[C@H]1C2CCC(CC2)[C@@H]1Nc1cncc(-c2c[nH]c3ncc(F)cc23)n1` (mixture of isomers) [Compound I-38]: the concentration for half-maximal inhibition (IC50) in test [1] (setting [3]) was under 3.3 µM. Also, the concentration for a half-maximal effect (EC50) in test [2] (setting [4]) was under 3.3 µM.
With `N#CC1(C(=O)N[C@@H]2CCC[C@H](Nc3nc(-c4c[nH]c5ncc(F)cc45)c(F)cc3F)C2)CC1` [Compound I-23], the half-inhibitory concentration (IC50) in test [1] (setting [3]) is under 3.3 µM. In addition, the EC50 in test [2] (setting [4]) was under 3.3 µM.
Take `O=C(N[C@@H]1CCC[C@H](Nc2nc(-c3c[nH]c4ncc(F)cc34)c(F)cc2F)C1)N1CCC(F)(F)C1` [Compound I-25, N-((1R,3S)-3-((3,5-difluoro-6-(5-fluoro-1H-pyrrolo[2,3-b]pyridin-3-yl)pyridin-2-yl)-amino)cyclohexyl)-3,3-difluoropyrrolidine-1-carboxamide]: the IC50 in test [1] (setting [3]) is under 3.3 µM. Further, the 50% effective concentration (EC50) in test [2] (setting [4]) is under 3.3 µM.
`CC[C@]1(C(=O)O)CCCC[C@@H]1Nc1ncc(C#N)c(-c2c[nH]c3ncc(C(F)(F)F)cc23)n1` [Compound I-8, (1S,2S)-2-((5-cyano-4-(5-(trifluoromethyl)-1H-pyrrolo[2,3-b]pyridin-3-yl)pyrimidin-2-yl)amino)-1-ethylcyclohexanecarboxylic acid]: in test [1] (setting [3]), the IC50 was under 3.3 µM. In test [2] (setting [4]), the EC50 was under 3.3 µM.
For the compound `N#Cc1cnc(N[C@@H]2C3CCC(CC3)[C@H]2C(=O)O)nc1-c1c[nH]c2ncc(C(F)(F)F)cc12` (racemic) [Compound I-39, (+/−)-trans 3-((5-cyano-4-(5-(trifluoromethyl)-1H-pyrrolo[2,3-b]pyridin-3-yl)pyrimidin-2-yl)amino)bicyclo[2.2.2]octane-2-carboxylic acid], in test [1] (setting [3]), the IC50 was under 3.3 µM. Besides, in test [2] (setting [4]), the EC50 is under 3.3 µM.
As to `N#Cc1cc(F)c(NC2C3CCC(CC3)C2C(=O)O)cc1-c1c[nH]c2ncc(F)cc12` (racemic) [Compound I-51, (+/−)-3-((4-cyano-2-fluoro-5-(5-fluoro-1H-pyrrolo[2,3-b]pyridin-3-yl)phenyl)amino)bicyclo[2.2.2]octane-2-carboxylic acid], the IC50 in test [1] (setting [3]) was under 3.3 µM. Besides, the half-maximal effective concentration (EC50) in test [2] (setting [4]) is under 3.3 µM.
Regarding `COC(=O)[C@@H]1C2CCC(CC2)[C@H]1Nc1nc(-c2c[nH]c3ncc(Cl)cc23)c(F)cc1F` [Compound I-31], the IC50 in test [1] (setting [3]) was at least 3.3 µM. Moreover, the EC50 in test [2] (setting [4]) is over 3.3 µM.
The matching figures for `O=C(N[C@@H]1CCC[C@H](Nc2nc(-c3c[nH]c4ncc(F)cc34)c(C(F)(F)F)cc2F)C1)N1CCOCC1` [Compound I-22, N-[(1R,3S)-3-[[3-fluoro-6-(5-fluoro-1H-pyrrolo[2,3-b]pyridin-3-yl)-5-(trifluoro-methyl)-2-pyridyl]amino]cyclohexyl]morpholine-4-carboxamide]: under 3.3 µM and under 3.3 µM.
In the case of `O=C(O)[C@H]1C2CCC(CC2)[C@@H]1Nc1nc(-c2c[nH]c3ncc(F)cc23)c(F)cc1F` [Compound I-28, (2S,3S)-3-((3,5-difluoro-6-(5-fluoro-1H-pyrrolo[2,3-b]pyridin-3-yl)pyridin-2-yl)amino)bicyclo[2.2.2]octane-2-carboxylic acid], the “Percent Weight Loss (Day 8)” value in the test with influenza infection (post challenge day 8) is 24.8%. Besides, in the test on influenza infection (scored for 21 days), the “Percent Survival” value is reported as 100%. Moreover, in the test with influenza infection (whole body plethysmography), the “WBP (Penh; Day 6)” value turned out to be 1.84. Also, the half-inhibitory concentration (IC50) in test [1] (setting [3]) was under 3.3 µM; in test [1] (CPE assay, A/PR/8/34, read-out: IC50), 0.005 µM. Moreover, the EC50 was 0.005 µM in test [2] (bDNA assay, read-out: EC50) and under 3.3 µM in test [2] (setting [4]).

In general, IC50 refers to the concentration needed to halve the response being measured. A word on the EC50: it is the concentration at which the effect is half-maximal.
